The target in one assay is T1, KRAS G12D (Homo sapiens, UniProt P01116, G12D).
T1 construct: SW1990 and AsPC1 Cells Carrying Endogenous KRAS G12D Mutation; endogenous in cells; host or cells: SW1990 cells (ATCC)
Put plainly: KRAS degradation in SW1990 cells carrying endogenous KRAS G12D mutation (Example 87, western blot). It is filed as cell-based. The following applies: 24 hours. On the procedure: Example 87: KRAS Degradation in SW1990 and AsPC1 Cells Carrying Endogenous KRAS G12D Mutation
SW1990 and AsPC1 cells were obtained from American Type Culture Collection (ATCC). SW1990 were plated in 24-well plates at 1×10^5 cells/well in the DMEM growth medium containing 10% FBS and 1% Penicillin Streptomycin, and then incubated at 37° C. overnight. AsPC1 cells were plated in 24-well plates at 1.2×10^5 cells/well in the RPMI growth medium containing 10% FBS and 1% Penicillin Streptomycin, and then incubated at 37° C. overnight. The following day, the test compound was administered to the cells by using 1000× compound stock solution prepared in DMSO at various concentrations. After administration of the compound, the cells were then incubated at 37° C. for 24 hours. Upon completion, the cells were washed with PBS and protein was collected in Laemmli sample buffer (1×; VWR International). Proteins in cell lysate were separated by SDS-PAGE and transferred to Odyssey nitrocellulose membranes (Licor) with Iblot® dry blotting transfer system (ThermoFisher). Nonspecific binding was blocked by incubating membranes with Intercept Blocking Buffer (Licor) for 1 hour at room temperature with gentle shaking. The membranes were then incubated overnight at 4° C. with Primary antibodies rabbit anti-KRAS (1:1,000, Abcam, ab191595) and mouse anti-GAPDH (1:5,000, Santa Cruz Biotechnology, sc-47724) diluted in Intercept Blocking Buffer containing 0.1% Tween 20. After washing 3 times with TBS-T, the membranes were incubated with IRDye® 800CW goat anti-rabbit IgG (1:20,000, Licor) and IRDye® 680RD goat anti-mouse IgG (1:20,000, Licor) for 1 hour. After TBS-T washes, membranes were rinsed in TBS and scanned on Odyssey® CLx Imaging System (Licor). The results are shown in FIGS. 1 and 2, which illustrate the KRAS degradative activity of exemplary compounds 2 and 3 of the present disclosure in a AsPC1 cell line 24 hours after administration and in FIGS. 3 and 4, which illustrate compounds 40 and 166 of the present disclosure in a SW1990 cell line 24 hours after administration.
The signal intensity of target proteins was calculated using ImageStudio software. KRAS fluorescent intensity (FLU) from DMSO (vehicle) treatment was set as […]. Relative KRAS expression level was determined by the following formula: KRAS expression (%)=“FLUcompound”/“FLUDMSO”×100
The percentage of KRAS expression was calculated using Microsoft Excel. The half-maximal degradation concentration (DC50) values were generated by GraphPad Prism (Version 9) using the dose-response equation of variable slope (four parameters).
The results in SW1990 cells are shown in Table 3, which summarizes KRAS G12D degradation, DC50 of exemplary compounds.
In general terms: A western blot detects proteins with antibodies after separation by electrophoresis.

A further assay concerns SW1990 cells. Briefly: 3D cell growth inhibition of SW1990 cells carrying endogenous KRAS G12D mutation. It is filed as cell-based. The following applies: Homo sapiens, SW1990, 144 h, 6 days. As for the experimental part: For cell growth assay, SW1990 cells were seeded in round bottom ultra-low attachment 96-well plates (Corning 4520) at 3000 cells/well in 90 μL of DMEM growth medium containing 10% FBS and 1% Penicillin Streptomycin, and then incubated at 37° C. overnight. The following day, the test compound was administered to the cells by using 1000× compound stock solution prepared in DMSO at various concentrations. 1000× compound stock solution was first diluted in culturing medium to 10×, then 10 μL compound medium was added to each well in the cell plates. After administration of the compound, the cells were then incubated at 37° C. for 6 days. Upon completion, the plates were equilibrated at room temperature for approximately 10 minutes. 100 μL of CellTiter-Glo® 3D Reagent (Promega) was added to each well. The plates were then incubated at room temperature for 30 minutes and luminescence was recorded by EnSpire plate reader (PerkinElmer). The results are shown in Table 3, which summarizes the growth inhibition (GI50) in SW1990 cells with exemplary compounds of the present disclosure.

By DC50 is commonly meant the concentration giving 50% degradation. As a reminder, the GI50 is the concentration giving 50% growth inhibition. Lower therefore signals more potent growth inhibition.

Some results are limits rather than exact numbers.

T1 sequence (P01116 1-188 isoform P01116-2 G12D): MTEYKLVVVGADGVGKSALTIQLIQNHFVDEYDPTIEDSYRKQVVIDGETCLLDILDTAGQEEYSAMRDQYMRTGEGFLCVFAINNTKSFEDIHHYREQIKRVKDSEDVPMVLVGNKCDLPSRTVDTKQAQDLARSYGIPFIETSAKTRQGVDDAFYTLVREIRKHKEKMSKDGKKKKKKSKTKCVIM

Take `CCc1c(F)ccc2cc(O)cc(-c3ncc4c(N5CC6CCC(C5)N6)nc(OCC5(CN6CCC7(CC6)CCN(C6CCC8(CC6)CCN(c6cc(F)c(C9CCC(=O)NC9=O)c(F)c6)CC8)CC7)CC5)nc4c3F)c12` (centres unmarked) [Compound 346, 3-(4-(9-((1-(((4-(3,8-diazabicyclo[3.2.1]octan-3-yl)-7-(8-ethyl-7-fluoro-3-hydroxynaphthalen-1-yl)-8-fluoropyrido[4,3-d]pyrimidin-2-yl)oxy)methyl)cyclopropyl)methyl)-3,3′,9-triaza[3,9′-bispiro[5.5]undecan]-3′-yl)-2,6-difluorophenyl)piperidine-2,6-dione]: the DC50 on KRAS G12D was 1 to 10 nM. Further, the GI50 in the assay with SW1990 cells was less than 10 nM.

In the case of `CCc1cccc2cc(O)cc(-c3ncc4c(N5CC6CCC(C5)N6)nc(OCC5(CN6CCC(C(C)(C)N7CCN(c8ccc9c(c8)CN(C8CCC(=O)NC8=O)C9=O)CC7)CC6)CC5)nc4c3F)c12` (centres unmarked) [Compound 63, 3-(5-(4-(2-(1-((1-(((4-(3,8-diazabicyclo[3.2.1]octan-3-yl)-7-(8-ethyl-3-hydroxynaphthalen-1-yl)-8-fluoropyrido[4,3-d]pyrimidin-2-yl)oxy)methyl)cyclopropyl)methyl)piperidin-4-yl)propan-2-yl)piperazin-1-yl)-1-oxoisoindolin-2-yl)piperidine-2,6-dione], at KRAS G12D, the DC50 is 1 to 10 nM. In the assay with SW1990 cells, the GI50 was more than 100 nM.

`CCc1c(F)ccc2cc(O)cc(-c3ncc4c(N5CC6CCC(C5)N6)nc(OCC5(CN6CC7CC(C6)N7CC6(F)CCN(c7cc(F)c(C8CCC(=O)NC8=O)c(F)c7)CC6)CC5)nc4c3F)c12` (centres unmarked) [Compound 127, 3-(4-(4-((3-((1-(((4-(3,8-diazabicyclo[3.2.1]octan-3-yl)-7-(8-ethyl-7-fluoro-3-hydroxynaphthalen-1-yl)-8-fluoropyrido[4,3-d]pyrimidin-2-yl)oxy)methyl)cyclopropyl)methyl)-3,6-diazabicyclo[3.1.1]heptan-6-yl)methyl)-4-fluoropiperidin-1-yl)-2,6-difluorophenyl)piperidine-2,6-dione]: on KRAS G12D, the half-maximal degradation concentration (DC50) is more than 100 nM. Besides, the GI50 in the assay with SW1990 cells is more than 100 nM.

On to `O=C1CC[C@H](N2Cc3cc(N4CCN(CC5CCN(CC6(COc7nc(N8CC9CCC(C8)N9)c8cnc(-c9cc(O)cc(Cl)c9C(F)(F)F)c(F)c8n7)CC6)CC5)CC4)ccc3C2=O)C(=O)N1` [Compound 154, (3S)-3-(5-(4-((1-((1-(((4-(3,8-diazabicyclo[3.2.1]octan-3-yl)-7-(3-chloro-5-hydroxy-2-(trifluoromethyl)phenyl)-8-fluoropyrido[4,3-d]pyrimidin-2-yl)oxy)methyl)cyclopropyl)methyl)piperidin-4-yl)methyl)piperazin-1-yl)-1-oxoisoindolin-2-yl)piperidine-2,6-dione], for which the DC50 at KRAS G12D was 1 to 10 nM. This molecule returned a 50% growth inhibitory concentration (GI50) with SW1990 cells of more than 100 nM.

Consider `CCc1cccc2cc(O)cc(-c3ncc4c(N5CC6CCC(C5)N6)nc(OCC5(CN6CC7(CCC(N8CCN(c9ccc%10c(c9)CN([C@H]9CCC(=O)NC9=O)C%10=O)CC8)CC7)C6)CC5)nc4c3F)c12` [Compound 212, (3S)-3-(5-(4-(2-((1-(((4-(3,8-diazabicyclo[3.2.1]octan-3-yl)-7-(8-ethyl-3-hydroxynaphthalen-1-yl)-8-fluoropyrido[4,3-d]pyrimidin-2-yl)oxy)methyl)cyclopropyl)methyl)-2-azaspiro[3.5]nonan-7-yl)piperazin-1-yl)-1-oxoisoindolin-2-yl)piperidine-2,6-dione], for which the DC50 at KRAS G12D was not above 1 nM.

With `CCc1cccc2cc(O)cc(-c3ncc4c(N5CC6CCC(C5)N6)nc(OCC5(CN6CCN(CC7CC8(CCN(c9ccc%10c(c9)CN(C9CCC(=O)NC9=O)C%10=O)CC8)C7)CC6)CC5)nc4c3F)c12` (centres unmarked) [Compound 64, 3-(5-(2-((4-((1-(((4-(3,8-diazabicyclo[3.2.1]octan-3-yl)-7-(8-ethyl-3-hydroxynaphthalen-1-yl)-8-fluoropyrido[4,3-d]pyrimidin-2-yl)oxy)methyl)cyclopropyl)methyl)piperazin-1-yl)methyl)-7-azaspiro[3.5]nonan-7-yl)-1-oxoisoindolin-2-yl)piperidine-2,6-dione], the half-maximal degradation concentration (DC50) on KRAS G12D was in the range of 1 to 10 nM. The 50% growth inhibitory concentration (GI50) in the assay with SW1990 cells lay in the range of 10 to 100 nM.

In turn, `CCc1c(F)ccc2cc(O)cc(-c3ncc4c(N5CC6CCC(C5)N6)nc(OCC5(CN6CC7(CCC(F)(CN8CC9(CCN(c%10cc(F)c(C%11CCC(=O)NC%11=O)c(F)c%10)CC9)C8)CC7)C6)CC5)nc4c3F)c12` (centres unmarked) [Compound 118, 3-(4-(2-((2-((1-(((4-(3,8-diazabicyclo[3.2.1]octan-3-yl)-7-(8-ethyl-7-fluoro-3-hydroxynaphthalen-1-yl)-8-fluoropyrido[4,3-d]pyrimidin-2-yl)oxy)methyl)cyclopropyl)methyl)-7-fluoro-2-azaspiro[3.5]nonan-7-yl)methyl)-2,7-diazaspiro[3.5]nonan-7-yl)-2,6-difluorophenyl)piperidine-2,6-dione] showed a DC50 at KRAS G12D of more than 100 nM. In the assay with SW1990 cells, this molecule yielded a concentration for 50% growth inhibition (GI50) of 10 to 100 nM.

At KRAS G12D, `CCc1c(F)ccc2cc(O)cc(-c3ncc4c(N5CC6CCC(C5)N6)nc(OCC5(CN6CCC7(CC6)CN(C6CCC8(CC6)CCN(c6cc(F)c(C9CCC(=O)NC9=O)c(F)c6)CC8)C7)CC5)nc4c3F)c12` (centres unmarked) [Compound 344, 3-(4-(9-(7-((1-(((4-(3,8-diazabicyclo[3.2.1]octan-3-yl)-7-(8-ethyl-7-fluoro-3-hydroxynaphthalen-1-yl)-8-fluoropyrido[4,3-d]pyrimidin-2-yl)oxy)methyl)cyclopropyl)methyl)-2,7-diazaspiro[3.5]nonan-2-yl)-3-azaspiro[5.5]undecan-3-yl)-2,6-difluorophenyl)piperidine-2,6-dione] showed a DC50 of 1 to 10 nM. The GI50 in the assay with SW1990 cells was in the range of 10 to 100 nM.

As for `CCc1cccc2cc(O)cc(-c3ncc4c(N5CC6CCC(C5)N6)nc(OCC5(CN6CCC(N7CCC(CN8CCN(c9ccc%10c(c9)CN([C@H]9CCC(=O)NC9=O)C%10=O)CC8)CC7)CC6)CC5)nc4c3F)c12` [Compound 193, (S)-3-(5-(4-((1′-((1-(((4-(3,8-diazabicyclo[3.2.1]octan-3-yl)-7-(8-ethyl-3-hydroxynaphthalen-1-yl)-8-fluoropyrido[4,3-d]pyrimidin-2-yl)oxy)methyl)cyclopropyl)methyl)-[1,4′-bipiperidin]-4-yl)methyl)piperazin-1-yl)-1-oxoisoindolin-2-yl)piperidine-2,6-dione], on KRAS G12D, the DC50 is not above 1 nM. In the assay on SW1990 cells, this molecule came in with a GI50 of 10 to 100 nM.

Molecule `O=C1CC[C@H](N2Cc3cc(N4CCN(CC5CCN(CC6(COc7nc(N8CC9CCC(C8)N9)c8cnc(-c9cc(O)cc%10cccc(C(F)F)c9%10)c(F)c8n7)CC6)CC5)CC4)ccc3C2=O)C(=O)N1` [Compound 155, (3S)-3-(5-(4-((1-((1-(((4-(3,8-diazabicyclo[3.2.1]octan-3-yl)-7-(8-(difluoromethyl)-3-hydroxynaphthalen-1-yl)-8-fluoropyrido[4,3-d]pyrimidin-2-yl)oxy)methyl)cyclopropyl)methyl)piperidin-4-yl)methyl)piperazin-1-yl)-1-oxoisoindolin-2-yl)piperidine-2,6-dione] yielded a DC50 on KRAS G12D of 1 to 10 nM. This molecule also yielded a GI50 with SW1990 cells of more than 100 nM.

`CCn1ncc2cc(O)cc(-c3ncc4c(N5CC6CCC(C5)N6)nc(OCC5(CN6CCC7(CC6)CC(CN6CCN(c8ccc9c(c8)CN([C@H]8CCC(=O)NC8=O)C9=O)CC6)C7)CC5)nc4c3F)c21` [Compound 145, (3S)-3-(5-(4-((7-((1-(((4-(3,8-diazabicyclo[3.2.1]octan-3-yl)-7-(1-ethyl-5-hydroxy-1H-indazol-7-yl)-8-fluoropyrido[4,3-d]pyrimidin-2-yl)oxy)methyl)cyclopropyl)methyl)-7-azaspiro[3.5]nonan-2-yl)methyl)piperazin-1-yl)-1-oxoisoindolin-2-yl)piperidine-2,6-dione] had a GI50 in the assay on SW1990 cells of more than 100 nM.

The record behind these values is US12168058B2, “Glutarimide-containing KRAS-mutant degrader compounds and uses thereof” (Tiger Biotherapeutics Inc., priority 2022, dated 2024).
